Source: ChEMBL document CHEMBL3991601, “The target landscape of clinical kinase drugs” (Science, 2017)
The source made the active and inactive calls. For most assays here, no stated cut-off is given here; in the data, actives have a measured Kd and inactives only a lower limit.

The molecules below were run against Casein kinase I isoform delta (Homo sapiens, UniProt P48730).
Casein kinase I isoform delta, sequence (P48730 whole entry, canonical isoform): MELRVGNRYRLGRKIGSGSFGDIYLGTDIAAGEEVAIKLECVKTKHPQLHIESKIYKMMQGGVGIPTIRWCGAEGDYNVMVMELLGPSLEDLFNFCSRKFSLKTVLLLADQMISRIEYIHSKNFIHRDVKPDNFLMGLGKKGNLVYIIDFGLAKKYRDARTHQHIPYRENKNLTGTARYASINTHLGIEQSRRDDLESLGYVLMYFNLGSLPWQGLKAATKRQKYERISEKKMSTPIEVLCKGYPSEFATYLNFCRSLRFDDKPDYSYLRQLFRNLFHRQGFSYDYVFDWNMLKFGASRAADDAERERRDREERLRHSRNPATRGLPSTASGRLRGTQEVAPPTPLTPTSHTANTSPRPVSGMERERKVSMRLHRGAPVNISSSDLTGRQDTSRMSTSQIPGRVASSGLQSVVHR
In the case of Cc1ccc(S(=O)(=O)Nc2nc3ccccc3nc2Nc2ccc3nsnc3c2)cc1, the Kd is reported as > 30 µM (inactive). Cc1cc(-c2cc(O)ccc2Cl)cc2nnc(Nc3ccc(OCCN4CCCC4)cc3)nc12 was tested, and the Kd was > 30 µM (inactive). In the case of COc1cc(CCc2cc(NC(=O)c3ccc(N4C[C@@H](C)N[C@@H](C)C4)cc3)n[nH]2)cc(OC)c1 [AZD-4547], the Kd is reported as > 30 µM (inactive). With Cc1cc([C@@H](C)Nc2ccccc2C(=O)O)c2nc(N3CCOCC3)cc(=O)n2c1 [AZD-6482] the Kd was > 30 µM (inactive).

These molecules were tested against Serine/threonine-protein kinase N3 (Homo sapiens, UniProt Q6P5Z2).
Cc1ccc(S(=O)(=O)Nc2nc3ccccc3nc2Nc2ccc3nsnc3c2)cc1 was tested, and the Kd was > 30 µM (inactive). For Cc1cc(-c2cc(O)ccc2Cl)cc2nnc(Nc3ccc(OCCN4CCCC4)cc3)nc12, the Kd was > 30 µM (inactive). With COc1cc(CCc2cc(NC(=O)c3ccc(N4C[C@@H](C)N[C@@H](C)C4)cc3)n[nH]2)cc(OC)c1 [AZD-4547] the Kd was > 30 µM (inactive). For Cc1cc([C@@H](C)Nc2ccccc2C(=O)O)c2nc(N3CCOCC3)cc(=O)n2c1 [AZD-6482], the Kd was > 30 µM (inactive).

These molecules were tested against cAMP-dependent protein kinase catalytic subunit alpha (Homo sapiens, UniProt P17612).
In the case of Cc1ccc(S(=O)(=O)Nc2nc3ccccc3nc2Nc2ccc3nsnc3c2)cc1, the Kd is reported as > 30 µM (inactive). Cc1cc(-c2cc(O)ccc2Cl)cc2nnc(Nc3ccc(OCCN4CCCC4)cc3)nc12 was tested, and the Kd was > 30 µM (inactive). In the case of COc1cc(CCc2cc(NC(=O)c3ccc(N4C[C@@H](C)N[C@@H](C)C4)cc3)n[nH]2)cc(OC)c1 [AZD-4547], the Kd is reported as > 30 µM (inactive). In the case of Cc1cc([C@@H](C)Nc2ccccc2C(=O)O)c2nc(N3CCOCC3)cc(=O)n2c1 [AZD-6482], the Kd is reported as > 30 µM (inactive).

Each molecule was assayed against Ribosomal protein S6 kinase alpha-5 (Homo sapiens, UniProt O75582).
Cc1ccc(S(=O)(=O)Nc2nc3ccccc3nc2Nc2ccc3nsnc3c2)cc1 was tested, and the Kd was > 30 µM (inactive). Cc1cc(-c2cc(O)ccc2Cl)cc2nnc(Nc3ccc(OCCN4CCCC4)cc3)nc12 was tested, and the Kd was > 30 µM (inactive). COc1cc(CCc2cc(NC(=O)c3ccc(N4C[C@@H](C)N[C@@H](C)C4)cc3)n[nH]2)cc(OC)c1 [AZD-4547] was tested, and the Kd was > 30 µM (inactive). In the case of Cc1cc([C@@H](C)Nc2ccccc2C(=O)O)c2nc(N3CCOCC3)cc(=O)n2c1 [AZD-6482], the Kd is reported as > 30 µM (inactive).

The molecules below were run against T1, Serine/threonine-protein kinase Chk1 (Homo sapiens, UniProt O14757).
T1 sequence (O14757 whole entry): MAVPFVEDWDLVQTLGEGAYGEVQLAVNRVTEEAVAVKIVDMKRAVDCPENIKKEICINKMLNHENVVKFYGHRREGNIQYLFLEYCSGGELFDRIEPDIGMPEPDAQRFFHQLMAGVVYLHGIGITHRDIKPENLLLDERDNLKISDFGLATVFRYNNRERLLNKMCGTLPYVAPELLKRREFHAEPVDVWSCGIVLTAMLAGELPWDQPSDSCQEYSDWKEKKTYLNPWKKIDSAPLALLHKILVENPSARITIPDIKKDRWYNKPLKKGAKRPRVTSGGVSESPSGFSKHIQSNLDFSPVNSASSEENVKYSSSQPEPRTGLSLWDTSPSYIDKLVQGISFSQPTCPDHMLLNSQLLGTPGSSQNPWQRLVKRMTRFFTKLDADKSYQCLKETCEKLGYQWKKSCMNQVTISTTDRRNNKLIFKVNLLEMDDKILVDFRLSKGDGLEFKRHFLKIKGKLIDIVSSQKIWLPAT
Cc1ccc(S(=O)(=O)Nc2nc3ccccc3nc2Nc2ccc3nsnc3c2)cc1 was tested, and the Kd was > 30 µM (inactive). For Cc1cc(-c2cc(O)ccc2Cl)cc2nnc(Nc3ccc(OCCN4CCCC4)cc3)nc12, the Kd was > 30 µM (inactive). With COc1cc(CCc2cc(NC(=O)c3ccc(N4C[C@@H](C)N[C@@H](C)C4)cc3)n[nH]2)cc(OC)c1 [AZD-4547] the Kd was > 30 µM (inactive). In the case of Cc1cc([C@@H](C)Nc2ccccc2C(=O)O)c2nc(N3CCOCC3)cc(=O)n2c1 [AZD-6482], the Kd is reported as > 30 µM (inactive).

The molecules below were run against Serine/threonine-protein kinase ATR (Homo sapiens, UniProt Q13535).
Serine/threonine-protein kinase ATR, sequence (Q13535 whole entry): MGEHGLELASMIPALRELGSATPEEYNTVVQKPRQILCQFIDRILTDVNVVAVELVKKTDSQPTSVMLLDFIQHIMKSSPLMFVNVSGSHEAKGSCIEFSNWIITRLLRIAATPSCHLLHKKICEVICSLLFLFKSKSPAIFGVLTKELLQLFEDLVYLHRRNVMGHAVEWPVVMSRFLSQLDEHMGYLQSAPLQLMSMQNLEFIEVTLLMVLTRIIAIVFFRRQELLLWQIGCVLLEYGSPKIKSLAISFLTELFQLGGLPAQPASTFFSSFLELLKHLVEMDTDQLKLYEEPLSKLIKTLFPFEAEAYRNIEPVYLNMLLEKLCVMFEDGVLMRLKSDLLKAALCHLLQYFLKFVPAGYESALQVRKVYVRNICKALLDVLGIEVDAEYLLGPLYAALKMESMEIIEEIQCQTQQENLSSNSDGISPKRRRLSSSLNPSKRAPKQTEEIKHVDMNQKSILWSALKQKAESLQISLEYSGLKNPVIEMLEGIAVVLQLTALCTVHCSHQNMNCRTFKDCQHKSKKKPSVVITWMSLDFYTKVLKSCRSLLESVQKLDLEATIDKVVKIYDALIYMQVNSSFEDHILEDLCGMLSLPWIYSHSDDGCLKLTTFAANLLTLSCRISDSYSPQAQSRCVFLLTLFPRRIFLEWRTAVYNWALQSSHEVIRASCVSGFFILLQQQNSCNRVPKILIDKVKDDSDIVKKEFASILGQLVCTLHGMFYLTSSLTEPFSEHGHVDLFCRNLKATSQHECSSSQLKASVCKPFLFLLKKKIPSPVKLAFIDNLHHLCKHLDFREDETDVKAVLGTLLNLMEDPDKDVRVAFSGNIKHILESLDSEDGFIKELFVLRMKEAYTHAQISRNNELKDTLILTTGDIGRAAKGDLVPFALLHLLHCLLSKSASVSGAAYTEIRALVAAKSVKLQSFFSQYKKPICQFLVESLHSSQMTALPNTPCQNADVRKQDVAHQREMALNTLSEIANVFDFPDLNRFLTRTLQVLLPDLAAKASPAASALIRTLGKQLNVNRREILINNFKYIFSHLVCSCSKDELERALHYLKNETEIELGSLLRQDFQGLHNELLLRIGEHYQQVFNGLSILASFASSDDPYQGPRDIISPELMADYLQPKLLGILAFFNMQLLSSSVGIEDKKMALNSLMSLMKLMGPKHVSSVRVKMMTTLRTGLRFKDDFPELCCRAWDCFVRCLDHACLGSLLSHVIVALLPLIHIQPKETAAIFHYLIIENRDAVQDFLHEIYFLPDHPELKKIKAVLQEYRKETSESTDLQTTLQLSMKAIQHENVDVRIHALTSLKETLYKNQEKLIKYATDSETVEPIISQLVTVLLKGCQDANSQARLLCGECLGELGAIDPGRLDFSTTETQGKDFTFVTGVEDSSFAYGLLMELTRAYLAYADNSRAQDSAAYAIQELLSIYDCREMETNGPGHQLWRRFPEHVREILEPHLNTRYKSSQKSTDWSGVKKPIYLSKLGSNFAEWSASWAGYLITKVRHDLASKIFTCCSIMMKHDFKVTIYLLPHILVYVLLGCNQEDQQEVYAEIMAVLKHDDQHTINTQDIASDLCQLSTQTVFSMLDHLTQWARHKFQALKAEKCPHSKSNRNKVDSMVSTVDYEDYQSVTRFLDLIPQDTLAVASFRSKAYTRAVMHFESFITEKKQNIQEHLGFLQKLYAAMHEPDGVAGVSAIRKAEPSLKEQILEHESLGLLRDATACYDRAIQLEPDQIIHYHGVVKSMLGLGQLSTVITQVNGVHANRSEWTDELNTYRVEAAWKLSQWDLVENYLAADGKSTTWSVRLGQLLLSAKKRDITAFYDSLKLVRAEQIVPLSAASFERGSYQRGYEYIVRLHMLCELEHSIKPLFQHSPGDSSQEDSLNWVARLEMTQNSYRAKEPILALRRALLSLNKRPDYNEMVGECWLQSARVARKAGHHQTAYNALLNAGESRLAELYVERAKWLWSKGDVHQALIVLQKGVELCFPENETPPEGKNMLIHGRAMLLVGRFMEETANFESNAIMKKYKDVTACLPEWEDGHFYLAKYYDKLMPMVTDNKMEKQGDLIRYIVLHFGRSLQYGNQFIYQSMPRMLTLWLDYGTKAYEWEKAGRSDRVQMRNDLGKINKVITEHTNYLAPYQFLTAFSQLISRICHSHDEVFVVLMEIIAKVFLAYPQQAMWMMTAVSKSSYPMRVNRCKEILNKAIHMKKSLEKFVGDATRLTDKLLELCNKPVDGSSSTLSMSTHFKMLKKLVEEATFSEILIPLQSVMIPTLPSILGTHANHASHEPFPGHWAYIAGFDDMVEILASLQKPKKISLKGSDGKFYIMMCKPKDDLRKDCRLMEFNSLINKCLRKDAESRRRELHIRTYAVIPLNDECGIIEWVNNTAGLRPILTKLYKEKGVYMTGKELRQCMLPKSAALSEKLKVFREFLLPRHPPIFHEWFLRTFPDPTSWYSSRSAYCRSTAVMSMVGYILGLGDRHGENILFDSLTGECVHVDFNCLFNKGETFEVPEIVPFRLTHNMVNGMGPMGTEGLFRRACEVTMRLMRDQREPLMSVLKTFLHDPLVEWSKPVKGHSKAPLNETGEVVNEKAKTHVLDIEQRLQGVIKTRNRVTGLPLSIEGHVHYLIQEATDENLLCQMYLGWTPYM
Cc1ccc(S(=O)(=O)Nc2nc3ccccc3nc2Nc2ccc3nsnc3c2)cc1 was tested, and the Kd was > 30 µM (inactive). Cc1cc(-c2cc(O)ccc2Cl)cc2nnc(Nc3ccc(OCCN4CCCC4)cc3)nc12 was tested, and the Kd was > 30 µM (inactive). In the case of COc1cc(CCc2cc(NC(=O)c3ccc(N4C[C@@H](C)N[C@@H](C)C4)cc3)n[nH]2)cc(OC)c1 [AZD-4547], the Kd is reported as > 30 µM (inactive). For Cc1cc([C@@H](C)Nc2ccccc2C(=O)O)c2nc(N3CCOCC3)cc(=O)n2c1 [AZD-6482], the Kd was > 30 µM (inactive).

These molecules were tested against T2, Pyridoxal kinase (Homo sapiens, UniProt O00764).
T2 sequence (O00764 whole entry): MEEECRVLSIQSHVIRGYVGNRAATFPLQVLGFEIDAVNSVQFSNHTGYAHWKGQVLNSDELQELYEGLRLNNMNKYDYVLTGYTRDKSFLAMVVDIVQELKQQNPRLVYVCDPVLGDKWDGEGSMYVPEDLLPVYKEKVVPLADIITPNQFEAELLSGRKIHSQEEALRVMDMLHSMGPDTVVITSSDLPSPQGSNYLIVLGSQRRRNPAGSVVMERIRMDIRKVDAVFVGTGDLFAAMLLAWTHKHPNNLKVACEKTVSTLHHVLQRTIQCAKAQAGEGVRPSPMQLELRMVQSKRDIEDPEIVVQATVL
For Cc1ccc(S(=O)(=O)Nc2nc3ccccc3nc2Nc2ccc3nsnc3c2)cc1, the Kd was > 30 µM (inactive). For Cc1cc(-c2cc(O)ccc2Cl)cc2nnc(Nc3ccc(OCCN4CCCC4)cc3)nc12, the Kd was > 30 µM (inactive). For COc1cc(CCc2cc(NC(=O)c3ccc(N4C[C@@H](C)N[C@@H](C)C4)cc3)n[nH]2)cc(OC)c1 [AZD-4547], the Kd was > 30 µM (inactive). With Cc1cc([C@@H](C)Nc2ccccc2C(=O)O)c2nc(N3CCOCC3)cc(=O)n2c1 [AZD-6482] the Kd was > 30 µM (inactive).

These molecules were tested against Ribosomal protein S6 kinase alpha-3 (Homo sapiens, UniProt P51812).
Ribosomal protein S6 kinase alpha-3, sequence (P51812 whole entry): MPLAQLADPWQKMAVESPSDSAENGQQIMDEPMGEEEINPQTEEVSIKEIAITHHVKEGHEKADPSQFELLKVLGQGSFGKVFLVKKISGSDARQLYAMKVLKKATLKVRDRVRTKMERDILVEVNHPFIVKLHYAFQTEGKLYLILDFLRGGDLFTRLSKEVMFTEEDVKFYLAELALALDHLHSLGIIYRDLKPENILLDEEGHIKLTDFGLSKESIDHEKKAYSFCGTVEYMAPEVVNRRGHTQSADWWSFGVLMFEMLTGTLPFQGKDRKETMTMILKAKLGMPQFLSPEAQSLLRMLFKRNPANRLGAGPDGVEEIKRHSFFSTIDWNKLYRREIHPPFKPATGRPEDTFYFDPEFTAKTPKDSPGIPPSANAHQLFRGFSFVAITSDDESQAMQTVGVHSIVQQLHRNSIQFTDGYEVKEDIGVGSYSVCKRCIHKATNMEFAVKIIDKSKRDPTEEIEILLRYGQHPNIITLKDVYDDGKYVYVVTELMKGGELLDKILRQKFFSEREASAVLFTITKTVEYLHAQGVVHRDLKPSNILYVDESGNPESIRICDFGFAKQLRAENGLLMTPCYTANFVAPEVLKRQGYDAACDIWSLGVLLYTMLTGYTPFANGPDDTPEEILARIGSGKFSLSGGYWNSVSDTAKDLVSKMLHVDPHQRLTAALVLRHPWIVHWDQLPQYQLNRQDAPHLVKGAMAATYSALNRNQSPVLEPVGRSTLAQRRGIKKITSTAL
With Cc1ccc(S(=O)(=O)Nc2nc3ccccc3nc2Nc2ccc3nsnc3c2)cc1 the Kd was > 30 µM (inactive). For Cc1cc(-c2cc(O)ccc2Cl)cc2nnc(Nc3ccc(OCCN4CCCC4)cc3)nc12, the Kd was > 30 µM (inactive). COc1cc(CCc2cc(NC(=O)c3ccc(N4C[C@@H](C)N[C@@H](C)C4)cc3)n[nH]2)cc(OC)c1 [AZD-4547] was tested, and the Kd was > 30 µM (inactive). With Cc1cc([C@@H](C)Nc2ccccc2C(=O)O)c2nc(N3CCOCC3)cc(=O)n2c1 [AZD-6482] the Kd was > 30 µM (inactive).

The molecules below were run against Serine/threonine-protein kinase Nek7 (Homo sapiens, UniProt Q8TDX7).
Cc1ccc(S(=O)(=O)Nc2nc3ccccc3nc2Nc2ccc3nsnc3c2)cc1 was tested, and the Kd was > 30 µM (inactive). With Cc1cc(-c2cc(O)ccc2Cl)cc2nnc(Nc3ccc(OCCN4CCCC4)cc3)nc12 the Kd was > 30 µM (inactive).

The molecules below were run against T3, Protein kinase C zeta type (Homo sapiens, UniProt Q05513).
T3 sequence (Q05513 whole entry): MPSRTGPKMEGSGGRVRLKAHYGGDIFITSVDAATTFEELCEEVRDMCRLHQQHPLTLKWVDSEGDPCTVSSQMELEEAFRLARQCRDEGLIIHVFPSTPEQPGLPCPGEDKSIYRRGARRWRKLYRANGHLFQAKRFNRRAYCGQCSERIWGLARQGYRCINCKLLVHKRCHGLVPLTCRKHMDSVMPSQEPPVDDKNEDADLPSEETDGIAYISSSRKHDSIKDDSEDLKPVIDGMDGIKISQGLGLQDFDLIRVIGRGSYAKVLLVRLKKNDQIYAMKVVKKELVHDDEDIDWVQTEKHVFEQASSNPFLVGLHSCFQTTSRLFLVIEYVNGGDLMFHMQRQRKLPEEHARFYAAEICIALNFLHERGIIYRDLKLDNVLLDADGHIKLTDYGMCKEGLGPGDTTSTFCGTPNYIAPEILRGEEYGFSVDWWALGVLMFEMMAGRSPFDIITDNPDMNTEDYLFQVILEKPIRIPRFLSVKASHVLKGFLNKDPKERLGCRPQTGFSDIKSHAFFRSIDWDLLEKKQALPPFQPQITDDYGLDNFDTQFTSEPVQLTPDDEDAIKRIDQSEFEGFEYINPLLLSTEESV
Cc1ccc(S(=O)(=O)Nc2nc3ccccc3nc2Nc2ccc3nsnc3c2)cc1 was tested, and the Kd was > 30 µM (inactive). In the case of Cc1cc(-c2cc(O)ccc2Cl)cc2nnc(Nc3ccc(OCCN4CCCC4)cc3)nc12, the Kd is reported as > 30 µM (inactive). COc1cc(CCc2cc(NC(=O)c3ccc(N4C[C@@H](C)N[C@@H](C)C4)cc3)n[nH]2)cc(OC)c1 [AZD-4547] was tested, and the Kd was > 30 µM (inactive). With Cc1cc([C@@H](C)Nc2ccccc2C(=O)O)c2nc(N3CCOCC3)cc(=O)n2c1 [AZD-6482] the Kd was > 30 µM (inactive).

These molecules were tested against Calcium/calmodulin-dependent protein kinase type II subunit gamma (Homo sapiens, UniProt Q13555).
Calcium/calmodulin-dependent protein kinase type II subunit gamma, sequence (Q13555 whole entry): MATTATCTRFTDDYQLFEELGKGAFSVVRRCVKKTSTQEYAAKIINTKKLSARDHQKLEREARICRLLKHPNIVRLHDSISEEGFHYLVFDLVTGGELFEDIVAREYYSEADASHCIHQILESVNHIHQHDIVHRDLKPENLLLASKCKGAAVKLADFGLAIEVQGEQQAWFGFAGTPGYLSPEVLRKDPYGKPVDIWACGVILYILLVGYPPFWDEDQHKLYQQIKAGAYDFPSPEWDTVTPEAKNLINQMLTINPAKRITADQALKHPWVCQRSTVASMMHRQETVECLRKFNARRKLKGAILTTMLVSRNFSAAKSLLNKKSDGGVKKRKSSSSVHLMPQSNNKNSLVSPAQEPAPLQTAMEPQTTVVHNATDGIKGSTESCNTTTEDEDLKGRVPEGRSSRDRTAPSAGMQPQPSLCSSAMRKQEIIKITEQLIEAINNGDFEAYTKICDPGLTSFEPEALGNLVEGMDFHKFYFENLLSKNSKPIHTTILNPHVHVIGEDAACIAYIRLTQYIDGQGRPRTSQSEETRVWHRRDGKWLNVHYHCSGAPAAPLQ
In the case of Cc1ccc(S(=O)(=O)Nc2nc3ccccc3nc2Nc2ccc3nsnc3c2)cc1, the Kd is reported as > 30 µM (inactive). Cc1cc(-c2cc(O)ccc2Cl)cc2nnc(Nc3ccc(OCCN4CCCC4)cc3)nc12 was tested, and the Kd was > 30 µM (inactive). COc1cc(CCc2cc(NC(=O)c3ccc(N4C[C@@H](C)N[C@@H](C)C4)cc3)n[nH]2)cc(OC)c1 [AZD-4547] was tested, and the Kd was > 30 µM (inactive). Cc1cc([C@@H](C)Nc2ccccc2C(=O)O)c2nc(N3CCOCC3)cc(=O)n2c1 [AZD-6482] was tested, and the Kd was > 30 µM (inactive).

Each molecule was assayed against Dual specificity protein kinase CLK1 (Homo sapiens, UniProt P49759).
Dual specificity protein kinase CLK1, sequence (P49759 whole entry): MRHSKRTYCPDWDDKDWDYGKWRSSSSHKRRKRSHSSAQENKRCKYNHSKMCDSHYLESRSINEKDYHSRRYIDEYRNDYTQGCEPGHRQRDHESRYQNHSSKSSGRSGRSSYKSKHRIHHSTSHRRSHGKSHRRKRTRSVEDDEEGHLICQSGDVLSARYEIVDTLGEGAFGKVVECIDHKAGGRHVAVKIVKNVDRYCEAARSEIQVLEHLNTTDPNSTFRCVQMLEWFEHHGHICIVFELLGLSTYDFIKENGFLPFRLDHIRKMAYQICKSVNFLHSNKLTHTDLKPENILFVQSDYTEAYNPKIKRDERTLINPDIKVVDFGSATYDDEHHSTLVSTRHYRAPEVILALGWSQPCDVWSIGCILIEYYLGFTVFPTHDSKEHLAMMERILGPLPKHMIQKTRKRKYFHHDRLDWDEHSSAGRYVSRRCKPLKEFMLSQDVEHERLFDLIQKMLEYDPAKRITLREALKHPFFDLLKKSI
For Cc1ccc(S(=O)(=O)Nc2nc3ccccc3nc2Nc2ccc3nsnc3c2)cc1, the Kd was > 30 µM (inactive). Cc1cc(-c2cc(O)ccc2Cl)cc2nnc(Nc3ccc(OCCN4CCCC4)cc3)nc12 was tested, and the Kd was > 30 µM (inactive). For COc1cc(CCc2cc(NC(=O)c3ccc(N4C[C@@H](C)N[C@@H](C)C4)cc3)n[nH]2)cc(OC)c1 [AZD-4547], the Kd was > 30 µM (inactive). With Cc1cc([C@@H](C)Nc2ccccc2C(=O)O)c2nc(N3CCOCC3)cc(=O)n2c1 [AZD-6482] the Kd was > 30 µM (inactive).
